Data set [1] is described as follows: cytosolic S10 HeLa cell extract (S10). Particulars: 37°C, up to 60 min.
Data set [2] is described as follows: In vitro degradation in cytosolic S10 HeLa cell extract. Format: in vitro ADME. Particulars: 10 ng sp6BY E0A or vp6 S40F, S14N, K27/33R; 5 μg S10 extract, 37°C; fluorescence or Western blot; three independent experiments (S1B Fig). As for the experimental part:
(§1) For generation of S10, confluent dishes with HeLa cells were extensively washed and subsequently lysed with a modified S10 buffer (250 mM sucrose, 80 mM KCl, 10 mM Tris pH 7.6, 0.1% (v/v) Triton X-100 [91]). Debris and nuclei were removed by centrifugation at 10.000 × g for 10 min. Protein content was determined by BCA-Assay (Pierce) and aliquots stored at -80°C.
(§2) Typically 5 μg S10 were incubated with inhibitor or buffer and 20–100 ng sp6 at 37°C for 30 min. Reactions were stopped by addition of sample buffer and incubation at 95°C for 5 min. Remaining p6 was detected by Western blotting using an anti-p6 rabbit antiserum. Alternatively, 10 ng of BODIPY FL-labeled sp6 (sp6BY) were used as substrate and detected directly in the polyacrylamide gel by fluorescence scanning. In some experiments the amount of p6 was densitometrically quantified with the software AIDA (Raytest). For the in vitro degradation of amyloid-β 10 ng of Aβ-FITC (abcam) were used analogously to sp6BY. For the in vitro degradation of viral p6, VLPs were pelleted and lysed in IDE enzyme buffer (150 mM NaCl, 50 mM Tris pH 7.4, 0.5% (v/v) Triton X-100). The p6 content was estimated by Western blotting using a dilution series of sp6 with known concentrations. Equivalents of 15 ng were used for digestion experiments and subsequently detected by Western blotting. Experiments carried out with recombinant IDE (Calbiochem) were performed in IDE enzyme buffer. Recombinant FITC-labeled insulin was purchased from Sigma.

Data set [3] deals with T1, insulin-degrading enzyme (IDE) (Homo sapiens, UniProt P14735).
T1 construct: endogenous in cells; host or cells: HeLa cells (cytosolic S10 extract)
T1 sequence (P14735 whole entry): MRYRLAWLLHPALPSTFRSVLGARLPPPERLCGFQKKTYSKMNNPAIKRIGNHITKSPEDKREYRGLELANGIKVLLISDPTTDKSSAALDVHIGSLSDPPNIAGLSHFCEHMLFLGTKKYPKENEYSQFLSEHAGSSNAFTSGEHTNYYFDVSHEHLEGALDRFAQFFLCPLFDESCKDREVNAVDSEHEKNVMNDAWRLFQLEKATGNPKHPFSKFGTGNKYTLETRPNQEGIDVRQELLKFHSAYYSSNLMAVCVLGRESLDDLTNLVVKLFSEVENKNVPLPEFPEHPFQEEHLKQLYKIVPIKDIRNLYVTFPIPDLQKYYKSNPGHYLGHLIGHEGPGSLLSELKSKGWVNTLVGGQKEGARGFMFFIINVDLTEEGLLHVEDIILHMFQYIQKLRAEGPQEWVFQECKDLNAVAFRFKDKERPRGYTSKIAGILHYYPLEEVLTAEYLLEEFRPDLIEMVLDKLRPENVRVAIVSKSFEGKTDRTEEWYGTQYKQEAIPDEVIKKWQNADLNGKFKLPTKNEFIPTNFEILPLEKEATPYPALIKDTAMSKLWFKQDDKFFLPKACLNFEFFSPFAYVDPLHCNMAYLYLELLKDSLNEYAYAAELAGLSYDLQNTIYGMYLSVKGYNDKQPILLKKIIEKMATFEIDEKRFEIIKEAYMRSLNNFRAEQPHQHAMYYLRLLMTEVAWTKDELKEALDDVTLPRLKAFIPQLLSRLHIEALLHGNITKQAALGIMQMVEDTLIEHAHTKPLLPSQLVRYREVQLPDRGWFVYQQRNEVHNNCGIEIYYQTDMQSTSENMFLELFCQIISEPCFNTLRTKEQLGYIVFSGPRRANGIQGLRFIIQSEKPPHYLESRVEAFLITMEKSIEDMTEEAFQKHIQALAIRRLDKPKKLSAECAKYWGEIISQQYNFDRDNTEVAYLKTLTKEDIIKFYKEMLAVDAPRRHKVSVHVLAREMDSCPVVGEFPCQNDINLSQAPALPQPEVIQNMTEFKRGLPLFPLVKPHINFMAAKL
Nature of the data set: Inhibition of / competition with sp6 or sp6BY degradation in S10 extract. Format: biochemical. Particulars: 30 min, 37°C; for stabilization of sp6BY by known IDE-inhibitors: 10 ng sp6BY, 5 μg S10 extract, increasing concentrations, fluorescence, at least three independent experiments (S2 Fig); for stabilization of sp6 by protease inhibitor (initial screen): 100 ng sp6, 5 μg S10 extract, Western blot, 1.3 mM EDTA, 130 μM Bestatin, 600 nM Phosphoramidon. The protocol: as §1
as §2, with “Reactions” for “Typically 5 μg S10 were incubated with inhibitor or buffer and 20–100 ng sp6 at 37°C for 30 min. Reactions”, “buffer.” for “buffer. Recombinant FITC-labeled insulin was purchased from Sigma.”
Bestatin, Chymostatin, E-64, Leupeptin, Pepstatin, Phosphoramidon, Pefabloc SC, EDTA, Aprotinin, Antipain were purchased from Roche as part of a protease inhibitors set and used at the following concentrations: 74 μM Antipain; 130 μM Bestatin; 100 μM Chymostatin; 28 μM E-64; 1 μM Leupeptin; 1 μM Pepstatin; 600 nM Phosphoramidon; 4 mM Pefabloc SC; 1.3 mM EDTA; […]. […] (Phoenix Pharmaceuticals and Tocris), TPEN (Calbiochem), and NEM (Roche) were purchased from companies indicated.
For orientation: In western blotting, separated proteins are transferred to a membrane and probed.

The next data set deals with purified mammalian IDE. Particulars: cited from earlier work.
The target in the next data set is T2, recombinant IDE (rIDE) (Rattus norvegicus, UniProt P35559).
T2 construct: purchased Calbiochem
T2 sequence (P35559 whole entry): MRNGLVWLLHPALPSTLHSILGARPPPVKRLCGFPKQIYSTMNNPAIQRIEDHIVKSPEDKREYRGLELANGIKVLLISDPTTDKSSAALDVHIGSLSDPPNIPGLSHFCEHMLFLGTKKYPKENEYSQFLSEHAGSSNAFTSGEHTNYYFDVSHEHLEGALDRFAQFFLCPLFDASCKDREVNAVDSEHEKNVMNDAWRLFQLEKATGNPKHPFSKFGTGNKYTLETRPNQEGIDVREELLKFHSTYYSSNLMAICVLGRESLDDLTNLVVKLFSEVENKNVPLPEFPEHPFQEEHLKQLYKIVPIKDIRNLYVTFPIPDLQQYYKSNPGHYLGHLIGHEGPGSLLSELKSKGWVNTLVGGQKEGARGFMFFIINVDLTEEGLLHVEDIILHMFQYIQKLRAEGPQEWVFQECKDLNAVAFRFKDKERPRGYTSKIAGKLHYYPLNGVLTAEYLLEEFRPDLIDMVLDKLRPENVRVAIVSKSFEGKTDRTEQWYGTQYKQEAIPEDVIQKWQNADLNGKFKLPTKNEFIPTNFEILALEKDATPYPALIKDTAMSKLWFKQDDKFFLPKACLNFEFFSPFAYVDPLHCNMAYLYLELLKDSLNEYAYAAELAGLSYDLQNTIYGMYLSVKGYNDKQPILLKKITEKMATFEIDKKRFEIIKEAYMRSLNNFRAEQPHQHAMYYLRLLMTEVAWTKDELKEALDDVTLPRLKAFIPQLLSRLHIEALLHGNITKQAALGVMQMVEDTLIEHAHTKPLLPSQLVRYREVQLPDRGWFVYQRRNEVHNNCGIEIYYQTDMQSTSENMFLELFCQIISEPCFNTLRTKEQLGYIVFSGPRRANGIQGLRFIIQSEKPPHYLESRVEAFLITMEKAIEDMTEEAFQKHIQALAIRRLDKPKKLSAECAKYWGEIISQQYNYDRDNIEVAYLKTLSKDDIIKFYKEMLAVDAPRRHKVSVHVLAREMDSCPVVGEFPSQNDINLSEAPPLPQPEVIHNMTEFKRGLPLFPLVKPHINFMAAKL
Put plainly: Inhibition of rIDE-mediated degradation of sp6BY. Format: biochemical. Particulars: 10 ng rIDE, 10 ng sp6BY, 30 min, 37°C; TPEN 1 mM, NEM 1 mM, insulin 100 μg/ml. The protocol:
Fig 6 IDE is sufficient and required for the in vitro degradation of sp6 and vp6. (A) 10 ng sp6BY were incubated with 5 μg S10 extract from HeLa cells, either untransfected or transfected with control or IDE-specific siRNA, for 0, 10, 30 or 90 min at 37°C. (B) sp6BY was detected by fluorescence emission and quantified. (C) VLP lysates from HEK293T cells were incubated with S10 from siRNA treated cells described in A. Viral proteins were detected as described in Fig 1. (D) Western blot analyses of the S10 extract used in A and C. The membrane was stained with antibodies specific for IDE, HSP70, and β-actin. […] (F) VLP lysates were incubated with 10 ng rIDE for 30 min.
as §2

These results are taken from PMC5384750 (PLoS ONE, 2017).

“PVAQVPQGLTPTAPPVDPAVDLLEKYMQQGKRQREQRERPYKEVTEDLLHLEQGETPYREPPTEDLLHLNSLFGKDQ”: the not cleaved result in data set [1] was “no degradation observed (up to 60 min)”. For the compound “PIQQKSQHNKSVVQETPQTQNLYPDLSEIKKEYNVKEKDQVEDLNLDSLWE”, the not cleaved entry in data set [1] is on record as “no degradation observed (up to 60 min)”. Regarding `CC[C@H](C)[C@H](NC(=O)[C@@H]1CCCN1C(=O)[C@H](CCC(=O)O)NC(=O)[C@H](CCC(N)=O)NC(=O)[C@H](CCCNC(=N)N)NC(=O)[C@H](CCC(N)=O)NC(=O)[C@H](CO)NC(=O)[C@@H]1CCCN1C(=O)[C@@H](NC(=O)[C@@H](NC(=O)[C@@H](NC(=O)[C@H](CCC(=O)O)NC(=O)[C@H](CCC(=O)O)NC(=O)CNC(=O)[C@H](Cc1ccccc1)NC(=O)[C@H](CCCNC(=N)N)NC(=O)[C@H](Cc1ccccc1)NC(=O)[C@H](CO)NC(=O)[C@H](CCC(=O)O)NC(=O)[C@H](CCC(=O)O)NC(=O)[C@@H]1CCCN1C(=O)[C@@H]1CCCN1C(=O)[C@H](C)NC(=O)[C@@H](NC(=O)[C@@H]1CCCN1C(=O)[C@H](CCC(=O)O)NC(=O)[C@@H]1CCCN1C(=O)[C@H](CCCNC(=N)N)NC(=O)[C@H](CO)NC(=O)[C@H](CCC(N)=O)NC(=O)[C@@H](N)CC(C)C)[C@@H](C)O)[C@@H](C)O)[C@@H](C)O)[C@@H](C)O)C(=O)N[C@@H](CC(=O)O)C(=O)N[C@@H](CCCNC(=N)N)C(=O)N[C@@H](CCC(=O)O)C(=O)N[C@@H](CC(C)C)C(=O)N[C@@H](Cc1ccc(O)cc1)C(=O)N1CCC[C@H]1C(=O)N[C@@H](CC(C)C)C(=O)N[C@@H](C)C(=O)N[C@@H](CO)C(=O)N[C@@H](CC(C)C)C(=O)N[C@@H](CCCNC(=N)N)C(=O)N[C@@H](CO)C(=O)N[C@@H](CC(C)C)C(=O)N[C@@H](Cc1ccccc1)C(=O)NCC(=O)N[C@@H](CO)C(=O)N[C@@H](CC(=O)O)C(=O)N1CCC[C@H]1C(=O)N[C@@H](CO)C(=O)N[C@@H](CO)C(=O)N[C@@H](CCC(N)=O)C(=O)O` [K27/33R], the “degradation efficiency of HIV-1NL4-3 p6 mutants in S10 extract” value in data set [2] is recorded as “wt degradation efficiency”.

Bacitracin: the “stabilization of sp6BY by known IDE-inhibitors” value in data set [3] is recorded as “prevented the degradation of p6”.

With `CC[C@H](C)[C@H](NC(=O)[C@@H]1CCCN1C(=O)[C@H](CCC(=O)O)NC(=O)[C@H](CCC(N)=O)NC(=O)[C@H](CCCCN)NC(=O)[C@H](CCC(N)=O)NC(=O)[C@H](CO)NC(=O)[C@@H]1CCCN1C(=O)[C@@H](NC(=O)[C@@H](NC(=O)[C@@H](NC(=O)[C@H](CCC(=O)O)NC(=O)[C@H](CCC(=O)O)NC(=O)CNC(=O)[C@H](Cc1ccccc1)NC(=O)[C@H](CCCNC(=N)N)NC(=O)[C@H](Cc1ccccc1)NC(=O)[C@H](CO)NC(=O)[C@H](CCC(=O)O)NC(=O)[C@H](CCC(=O)O)NC(=O)[C@@H]1CCCN1C(=O)[C@@H]1CCCN1C(=O)[C@H](C)NC(=O)[C@@H](NC(=O)[C@@H]1CCCN1C(=O)[C@H](CCC(=O)O)NC(=O)[C@@H]1CCCN1C(=O)[C@H](CCCNC(=N)N)NC(=O)[C@H](CO)NC(=O)[C@H](CCC(N)=O)NC(=O)[C@@H](N)CC(C)C)[C@@H](C)O)[C@@H](C)O)[C@@H](C)O)[C@@H](C)O)C(=O)N[C@@H](CC(=O)O)C(=O)N[C@@H](CCCCN)C(=O)N[C@@H](CCC(=O)O)C(=O)N[C@@H](CC(C)C)C(=O)N[C@@H](Cc1ccc(O)cc1)C(=O)N1CCC[C@H]1C(=O)N[C@@H](CC(C)C)C(=O)N[C@@H](C)C(=O)N[C@@H](Cc1ccccc1)C(=O)N[C@@H](CC(C)C)C(=O)N[C@@H](CCCNC(=N)N)C(=O)N[C@@H](CO)C(=O)N[C@@H](CC(C)C)C(=O)N[C@@H](Cc1ccccc1)C(=O)NCC(=O)N[C@@H](CO)C(=O)N[C@@H](CC(=O)O)C(=O)N1CCC[C@H]1C(=O)N[C@@H](CO)C(=O)N[C@@H](CO)C(=O)N[C@@H](CCC(N)=O)C(=O)O` [S40F], in data set [2], the “degradation efficiency of HIV-1NL4-3 p6 mutants in S10 extract” value is “wt degradation efficiency”. On the same count and under the same terms, the entry for `CC[C@H](C)[C@H](NC(=O)[C@@H]1CCCN1C(=O)[C@H](CCC(=O)O)NC(=O)[C@H](CCC(N)=O)NC(=O)[C@H](CCCCN)NC(=O)[C@H](CCC(N)=O)NC(=O)[C@H](CO)NC(=O)[C@@H]1CCCN1C(=O)[C@@H](NC(=O)[C@@H](NC(=O)[C@@H](NC(=O)[C@H](CCC(=O)O)NC(=O)[C@H](CCC(=O)O)NC(=O)CNC(=O)[C@H](Cc1ccccc1)NC(=O)[C@H](CCCNC(=N)N)NC(=O)[C@H](Cc1ccccc1)NC(=O)[C@H](CC(N)=O)NC(=O)[C@H](CCC(=O)O)NC(=O)[C@H](CCC(=O)O)NC(=O)[C@@H]1CCCN1C(=O)[C@@H]1CCCN1C(=O)[C@H](C)NC(=O)[C@@H](NC(=O)[C@@H]1CCCN1C(=O)[C@H](CCC(=O)O)NC(=O)[C@@H]1CCCN1C(=O)[C@H](CCCNC(=N)N)NC(=O)[C@H](CO)NC(=O)[C@H](CCC(N)=O)NC(=O)[C@@H](N)CC(C)C)[C@@H](C)O)[C@@H](C)O)[C@@H](C)O)[C@@H](C)O)C(=O)N[C@@H](CC(=O)O)C(=O)N[C@@H](CCCCN)C(=O)N[C@@H](CCC(=O)O)C(=O)N[C@@H](CC(C)C)C(=O)N[C@@H](Cc1ccc(O)cc1)C(=O)N1CCC[C@H]1C(=O)N[C@@H](CC(C)C)C(=O)N[C@@H](C)C(=O)N[C@@H](CO)C(=O)N[C@@H](CC(C)C)C(=O)N[C@@H](CCCNC(=N)N)C(=O)N[C@@H](CO)C(=O)N[C@@H](CC(C)C)C(=O)N[C@@H](Cc1ccccc1)C(=O)NCC(=O)N[C@@H](CO)C(=O)N[C@@H](CC(=O)O)C(=O)N1CCC[C@H]1C(=O)N[C@@H](CO)C(=O)N[C@@H](CO)C(=O)N[C@@H](CCC(N)=O)C(=O)O` [S14N] is “wt degradation efficiency”. As for amyloid-β [Aβ], the kcat – broadly, the number of substrate molecules converted per active site and unit of time at saturation – in the data set with purified mammalian IDE (purified mammalian IDE) was 0.875 s⁻¹. The Michaelis constant (Km) (usually the substrate concentration at which the rate is half of its maximum) in the data set with purified mammalian IDE (rounded value) is 1.2 µM.

Regarding `CCN1C(=O)C=CC1=O` [NEM, N-ethylmaleimide], the “stabilization of sp6 in the presence of rIDE” value at recombinant IDE (rIDE) is “stabilized sp6”. In data set [3], the “stabilization of sp6BY by known IDE-inhibitors” value is reported as “prevented the degradation of p6”. In the case of `Nc1ncnc2c1ncn2[C@@H]1O[C@H](COP(=O)(O)OP(=O)(O)OP(=O)(O)O)[C@@H](O)[C@H]1O` [ATP], the “stabilization of sp6BY by known IDE-inhibitors” value in data set [3] was “prevented the degradation of p6”.

For `CC(C)C[C@H](NC(=O)[C@@H](O)[C@H](N)Cc1ccccc1)C(=O)O` [Bestatin], the “stabilization of sp6 by protease inhibitor (initial screen)” value in data set [3] was “did not stabilize p6”. Still for that read-out and setting: the entry for `O=C(O)CN(CCN(CC(=O)O)CC(=O)O)CC(=O)O` [EDTA] is “could stabilize sp6”.

As for `c1ccc(CN(CCN(Cc2ccccn2)Cc2ccccn2)Cc2ccccn2)nc1` [TPEN], at recombinant IDE (rIDE), the “stabilization of sp6 in the presence of rIDE” value is reported as “stabilized sp6”. For “PMAQVHQGLMPTAPPEDPAVDLLKNYMQLGKQQREKQRESREKPYKEVTEDLLHLNSLFGGDQ”, the not cleaved entry in data set [1] is given as “no degradation observed (up to 60 min)”. With `CC(C)C[C@H](NP(=O)(O)O[C@@H]1O[C@@H](C)[C@H](O)[C@@H](O)[C@H]1O)C(=O)N[C@@H](Cc1c[nH]c2ccccc12)C(=O)O` [Phosphoramidon], in data set [3], the “stabilization of sp6 by protease inhibitor (initial screen)” value was “failed to stabilize p6”.
